PubChem BioAssay AID248 (DTP/NCI, 2004)
“And” between values parts separate entries of the source, which are not always exact repeats. Equal entries are not always repeated. Inconclusive results and toxic doses are left out. Cut-off read from the data, not from the text of the source: active = T/C of 150% or more; inactive = T/C below 125%. Square brackets hold non-standard residues; d marks the D form. Peptide text beside a SMILES is read from it. ξ: configuration not given here. Ac5c = NC1(C(=O)O)CCCC1; ξS = NC(CO)C(=O)O

System: L1210 leukemia ip in BDF1 mice, survival T/C
Experiment: NCI In Vivo Anticancer Drug Screen. Data for tumor model L1210 Leukemia (intraperitoneal) in B6D2F1 (BDF1) mice
Details: endpoint: mean survival time, higher = longer survival
Summary of the method: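 Read-out is survival time, reported as the treated-group measurement over the vehicle-control measurement.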

[1] = dose: 100.0 mg/kg/injection, schedule: Q01DX009 (ip), vehicle: saline
[2] = dose: 100.0 mg/kg/injection, schedule: Q01DX001 (ip), vehicle: saline
[3] = dose: 200.0 mg/kg/injection, schedule: Q01DX001 (ip), vehicle: saline
[4] = dose: 400.0 mg/kg/injection, schedule: Q01DX001 (ip), vehicle: saline
[5] = dose: 100.0 mg/kg/injection, schedule: Q01DX009 (ip), vehicle: Klucel (hydroxypropylcellulose) (HPC)
[6] = dose: 100.0 mg/kg/injection, schedule: Q04DX002 (ip), vehicle: Klucel (hydroxypropylcellulose) (HPC)
[7] = dose: 100.0 mg/kg/injection, schedule: Q04DX003 (ip), vehicle: Klucel (hydroxypropylcellulose) (HPC)
[8] = dose: 200.0 mg/kg/injection, schedule: Q01DX009 (ip), vehicle: Klucel (hydroxypropylcellulose) (HPC)
[9] = dose: 200.0 mg/kg/injection, schedule: Q04DX002 (ip), vehicle: Klucel (hydroxypropylcellulose) (HPC)
[10] = dose: 200.0 mg/kg/injection, schedule: Q04DX003 (ip), vehicle: Klucel (hydroxypropylcellulose) (HPC)
[11] = dose: 400.0 mg/kg/injection, schedule: Q01DX009 (ip), vehicle: Klucel (hydroxypropylcellulose) (HPC)
[12] = dose: 400.0 mg/kg/injection, schedule: Q04DX003 (ip), vehicle: Klucel (hydroxypropylcellulose) (HPC)
[13] = dose: 100.0 mg/kg/injection, schedule: Q01DX001 (ip), vehicle: Klucel (hydroxypropylcellulose) (HPC)
[14] = dose: 200.0 mg/kg/injection, schedule: Q01DX001 (ip), vehicle: Klucel (hydroxypropylcellulose) (HPC)
[15] = dose: 400.0 mg/kg/injection, schedule: Q01DX001 (ip), vehicle: Klucel (hydroxypropylcellulose) (HPC)
[16] = dose: 1.56 mg/kg/injection, schedule: Q04DX003 (ip), vehicle: saline
[17] = dose: 3.12 mg/kg/injection, schedule: Q04DX003 (ip), vehicle: saline
[18] = dose: 200.0 mg/kg/injection, schedule: Q01DX009 (ip), vehicle: saline
[19] = dose: 400.0 mg/kg/injection, schedule: Q01DX009 (ip), vehicle: saline

Measured: T/C

CC1(C)N=C(N)N=C(N)N1c1ccc(CCC(=O)Nc2cccc(S(=O)(=O)F)c2)cc1
inactive: dose: 0.8 mg/kg/injection, schedule: Q01DX009 (ip), vehicle: saline 98 % of control | dose: 4.0 mg/kg/injection, schedule: Q01DX009 (ip), vehicle: saline 106 % of control | dose: 20.0 mg/kg/injection, schedule: Q01DX009 (ip), vehicle: saline 108 % of control | dose: 25.0 mg/kg/injection, schedule: Q#A X018 (ip), vehicle: saline 119 % of control | dose: 50.0 mg/kg/injection, schedule: Q01DX009 (ip), vehicle: saline 111 % of control | dose: 50.0 mg/kg/injection, schedule: Q#A X018 (ip), vehicle: saline 113 % of control | [1] 112 % of control and 122 % of control | dose: 100.0 mg/kg/injection, schedule: Q#A X018 (ip), vehicle: saline 88 % of control

NC(CO)C(=O)NC1(C(=O)O)CCCC1 (stereo not given) (H-[ξS]-[Ac5c]-OH)
inactive: [2] 100 % of control | [3] 107 % of control | [4] 107 % of control

Cc1ncc(C#N)n1Cc1ccccc1
inactive: [5] 98 % of control and 101 % of control | [6] 101 % of control and 113 % of control | [7] 109 % of control | [8] 101 % of control and 103 % of control | [9] 103 % of control and 108 % of control | [10] 104 % of control | [11] 101 % of control | dose: 400.0 mg/kg/injection, schedule: Q04DX002 (ip), vehicle: Klucel (hydroxypropylcellulose) (HPC) 103 % of control and 109 % of control | [12] 111 % of control

c1cc2c(cc1CNC1CCCCC1)OCO2
inactive: dose: 75.0 mg/kg/injection, schedule: Q01DX001 (ip), vehicle: saline 100 % of control

CC1=CCc2c(NS(=O)(=O)N(C)C)ccc(NS(=O)(=O)N(C)C)c2C1
inactive: [13] 101 % of control | [7] 94 % of control | [14] 97 % of control | [10] 93 % of control | [15] 97 % of control | [12] 91 % of control

NC(N)=N/N=C(\C=N\N=C(N)N)c1ccc(CCc2ccc(C(/C=N/N=C(N)N)=N\N=C(N)N)cc2)cc1
inactive: [16] 98 % of control | [17] 103 % of control

CCC(C)(CC(=O)O)CC(=O)O
inactive: [1] 107 % of control | dose: 100.0 mg/kg/injection, schedule: Q04DX003 (ip), vehicle: saline 93 % of control | [18] 93 % of control | dose: 200.0 mg/kg/injection, schedule: Q04DX003 (ip), vehicle: saline 90 % of control | [19] 96 % of control | dose: 400.0 mg/kg/injection, schedule: Q04DX003 (ip), vehicle: saline 92 % of control

CC(CN1CCN(CCOCCO)CC1)CN1c2ccccc2Sc2ccc(Cl)cc21 (stereo not given)
inactive: dose: 0.09 mg/kg/injection, schedule: Q01DX009 (ip), vehicle: saline 114 % of control | dose: 0.39 mg/kg/injection, schedule: Q01DX009 (ip), vehicle: saline 94 % of control | dose: 0.78 mg/kg/injection, schedule: Q01DX009 (ip), vehicle: saline 96 % of control | dose: 0.78 mg/kg/injection, schedule: Q04DX003 (ip), vehicle: saline 108 % of control | dose: 1.56 mg/kg/injection, schedule: Q01DX009 (ip), vehicle: saline 114 % of control | [16] 110 % of control | [17] 106 % of control | dose: 6.25 mg/kg/injection, schedule: Q04DX003 (ip), vehicle: saline 105 % of control | dose: 12.5 mg/kg/injection, schedule: Q04DX003 (ip), vehicle: saline 111 % of control

O=P1(c2ccccc2)CCc2[nH]c3ccc(Cl)cc3c2C1 (stereo not given)
inactive: [7] 100 % of control | [10] 107 % of control | [12] 112 % of control

Cc1cc(NC(=O)Nc2ccc(Cl)cc2)no1
inactive: dose: 100.0 mg/kg/injection, schedule: Q04DX003 (ip), vehicle: saline sonified 95 % of control | dose: 200.0 mg/kg/injection, schedule: Q04DX003 (ip), vehicle: saline sonified 87 % of control | dose: 400.0 mg/kg/injection, schedule: Q04DX003 (ip), vehicle: saline sonified 87 % of control

OC1CCNc2ccccc21 (stereo not given)
inactive: [1] 104 % of control | [18] 105 % of control | [19] 112 % of control

O=c1[nH]c2ncccc2c(=O)n1O
inactive: dose: 50.0 mg/kg/injection, schedule: Q01DX001 (ip), vehicle: saline 96 % of control | [2] 100 % of control | [5] 96 % of control | [3] 96 % of control | [8] 98 % of control | [11] 94 % of control

COc1ccc(C)cc1NC(=O)Nc1ccccc1C(F)(F)F
inactive: [5] 89 % of control | [8] 91 % of control | [11] 100 % of control

CC(=O)CCC(=O)CCC(C)=O
inactive: dose: 100.0 mg/kg/injection, schedule: Q04DX002 (ip), vehicle: saline 93 % of control | dose: 200.0 mg/kg/injection, schedule: Q04DX002 (ip), vehicle: saline 101 % of control | dose: 400.0 mg/kg/injection, schedule: Q04DX002 (ip), vehicle: saline 101 % of control

CCOC(=O)Nc1cc(Cl)c([N+](=O)[O-])c(NC(=O)OCC)n1
inactive: dose: 100.0 mg/kg/injection, schedule: Q01DX001 (ip), vehicle: other 102 % of control | dose: 200.0 mg/kg/injection, schedule: Q01DX001 (ip), vehicle: other 91 % of control

O=C1CCCN1C1CC2c3ccccc3C1c1cccc[n+]12 (stereo not given)
inactive: dose: 5.0 mg/kg/injection, schedule: Q01DX009 (ip), vehicle: saline sonified 94 % of control | dose: 10.0 mg/kg/injection, schedule: Q01DX009 (ip), vehicle: saline sonified 98 % of control | dose: 20.0 mg/kg/injection, schedule: Q01DX009 (ip), vehicle: saline sonified 97 % of control

O=CN/N=C/c1cc(=O)[nH]c(=O)[nH]1
inactive: [2] 87 % of control | [3] 87 % of control | [4] 93 % of control

Cc1cccc(Cl)c1OC(=O)Nc1ccccc1
inactive: dose: 50.0 mg/kg/injection, schedule: Q04DX002 (ip), vehicle: Klucel (hydroxypropylcellulose) (HPC) 98 % of control | [6] 98 % of control | [9] 102 % of control

O=C1C=C(c2ccccc2)C(Cl)(c2ccccc2)C1 (stereo not given)
inactive: dose: 100.0 mg/kg/injection, schedule: Q01DX001 (ip), vehicle: saline with Tween-80 104 % of control | dose: 200.0 mg/kg/injection, schedule: Q01DX001 (ip), vehicle: saline with Tween-80 96 % of control | dose: 400.0 mg/kg/injection, schedule: Q01DX001 (ip), vehicle: saline with Tween-80 89 % of control

c1ccc(OCc2ccc(COc3ccccc3)cc2)cc1
inactive: dose: 25.0 mg/kg/injection, schedule: Q01DX009 (ip), vehicle: Klucel (hydroxypropylcellulose) (HPC) 98 % of control | dose: 25.0 mg/kg/injection, schedule: Q04DX003 (ip), vehicle: Klucel (hydroxypropylcellulose) (HPC) 97 % of control | dose: 50.0 mg/kg/injection, schedule: Q01DX009 (ip), vehicle: Klucel (hydroxypropylcellulose) (HPC) 92 % of control | dose: 50.0 mg/kg/injection, schedule: Q04DX003 (ip), vehicle: Klucel (hydroxypropylcellulose) (HPC) 94 % of control | [5] 95 % of control | [7] 92 % of control

O=C1CC2(O)CCC1(c1ccccc1)CC2
inactive: dose: 75.0 mg/kg/injection, schedule: Q04DX002 (ip), vehicle: Klucel (hydroxypropylcellulose) (HPC) 92 % of control | dose: 150.0 mg/kg/injection, schedule: Q04DX002 (ip), vehicle: Klucel (hydroxypropylcellulose) (HPC) 100 % of control | dose: 300.0 mg/kg/injection, schedule: Q04DX002 (ip), vehicle: Klucel (hydroxypropylcellulose) (HPC) 95 % of control

O=C(/C=C/C(=O)Oc1ccc(Cl)cc1)Oc1ccc(Cl)cc1
inactive: [13] 96 % of control | [5] 102 % of control | [7] 97 % of control | [14] 101 % of control | [8] 102 % of control | [10] 108 % of control | [15] 99 % of control | [11] 100 % of control | [12] 107 % of control

CCCCOC(=O)C1C=C(N)CCC1 (stereo not given)
inactive: dose: 100.0 mg/kg/injection, schedule: Q01DX001 (ip), vehicle: carboxymethylcellulose (CMC) 92 % of control | dose: 200.0 mg/kg/injection, schedule: Q01DX001 (ip), vehicle: carboxymethylcellulose (CMC) 89 % of control | dose: 400.0 mg/kg/injection, schedule: Q01DX001 (ip), vehicle: carboxymethylcellulose (CMC) 94 % of control
